The values below come from patent publication US20080260842A1, “PERMEATION ENHANCING COMPOSITIONS FOR ANTICHOLINERGIC AGENTS” (priority 2004, published 2008).

Molecules are shown by their SMILES. Read-outs that look alike come from different tables or passages of the source.

Data set [1] is described as follows: Dose-ranging pharmacokinetic study of transdermal oxybutynin gel in healthy volunteers (Example 18). The settings on record: after 20 days (steady-state), mean ± SD, N = 16. How it is done:
The study was an open-label, randomized, parallel, three-treatment, dose-ranging pharmacokinetic study. […] The subjects were aged 19 to 53 (mean 35) years.
The oxybutynin transdermal gel formulation contained 3% w/w of oxybutynin base in a hydroalcoholic non-occlusive matrix including the unique combination of permeation enhancers of the present invention. Three different doses of the gel were administered topically once a day during 20 consecutive days: treatment A consisted in a daily amount of 1.4 g applied gel, corresponding to 42 mg oxybutynin; treatment B consisted in a daily amount of 2.0 g applied gel, corresponding to 60 mg oxybutynin; and treatment C consisted in a daily amount of 2.8 g applied gel, corresponding to 84 mg oxybutynin.

Data set [2] in a line: Pilot pharmacokinetic study of an oxybutynin gel formulation in healthy volunteers (Example 17). The note with it: Treatment A (60 mg/day gel), 156 h, individual subjects.
Experimental: (§1) Subjects were excluded on the basis of any preexisting condition or finding on the prestudy examination that would place them at risk during the study. Written informed consent was obtained from each subject before participating in any study-related procedures after discussion and explanation of the study.
(§2) Treatments were administered according to an open-label, multiple-dose, escalating dose titration pilot pharmacokinetic study and included a transdermal oxybutynin gel. Steady-state conditions were achieved by administering daily doses for 7 days. Subjects participated in 2 study periods during which the test medication (a transdermal gel) was applied once daily. 2 g of the gel (corresponding to a dose of 60 mg of oxybutynin) was applied daily during the first study period (Treatment A), then 1 g (corresponding to a dose of 30 mg of oxybutynin) during the second study period (Treatment B). A wash-out period of 7 days was observed between the two study periods. Both dosages were tested on same subjects. The design allows comparison between different dosages of the same formulation within the subject and removes inter-subject variability.
(§3) The main objective of this study was to assess the pharmacokinetic parameters of an oxybutynin gel formulation, administered in two different doses, administering the product in 8 healthy female volunteers.
(§4) The secondary objective of this study was to record safety parameters such as adverse events, skin tolerance, vital signs, e.g., blood pressure and heart rate.
For data set [3] the following is noted: female, human, in vivo.
Experimental: as §1, §2, §3, §4
For data set [4] the following is noted: both, human, in vivo.
The test system of data set [5] is detrusor muscle. The note with it: cited from earlier work.
The nature of data set [6]: clinical. The note with it: both, human, in vivo, 84 mg, Tmax median.
Data set [7] in a line: Pharmacokinetic study of R/S OXY and DEO enantiomers, transdermal oxybutynin gel (Example 20). The note with it: single-dose topical 84 mg OXY gel, abdominal area, normalized to 84 mg, mean ± SD, N = 10. Type of data set: in vivo, human. The procedure: Ten healthy volunteers (Asian Indians, 60% female) aged 18 to 35 (mean 29) years old were treated with 2.8 g of a formulation of the present invention containing 3% w/w of OXY base (84 mg OXY), administered topically as a single dose on the abdomen (700 cm^2).

As to `CCNCC#CCOC(=O)C(O)(c1ccccc1)C1CCCCC1` (centres unmarked) [N-desethyloxybutynin], the Cav in data set [1] (Treatment A: 42 mg oxybutynin daily) was found to be 3.0 ± 1.3 ng/mL; in data set [1] (Treatment B: 60 mg oxybutynin daily), 4.0 ± 2.1 ng/mL; in data set [1] (Treatment C: 84 mg oxybutynin daily), 7.0 ± 4.0 ng/mL. The same molecule had a N-desethyloxybutynin concentration in data set [2] of 11.970 ng/L.

On to `CCN(CC)CC#CCOC(=O)C(O)(c1ccccc1)C1CCCCC1` (centres unmarked) [Oxybutynin], for which, in data set [3], the “Treatment A/Treatment B Ratio - Oxybutynin” value turned out to be 1.93. In addition, in data set [3] (0 h), the “Treatment A/Treatment B Ratio - Oxybutynin” value was 0. In data set [4], the “time to reach plasmatic levels of about 1 to 4 ng/ml” value is listed as “about 2 hours”, the “time to reach plasmatic levels of about 2 to 4 ng/ml” value was “less than 4 hours”, the “time to reach plasmatic levels of about 3 to about 4 ng/ml” value was “less than 6 hours” and the “time up to which plasmatic levels of about 1 to 4 ng/ml are sustained” value is recorded as “at least 72 hours”. Further, in data set [4], the “time up to which plasmatic levels of about 2 to 4 ng/ml are sustained” value was “at least 48 hours” and the “time up to which plasmatic levels of about 3 to about 4 ng/ml are sustained” value is on record as “at least 36 hours”. The “antispasmodic activity relative to atropine” value in data set [5] is given as “four to ten times”. Also, the “anticholinergic activity relative to atropine” value in data set [5] (detrusor muscle, effect observed in rabbits) was “one-fifth”. Moreover, the Tmax in data set [6] amounted to 24 h.

With `CCNCC#CCOC(=O)[C@](O)(c1ccccc1)C1CCCCC1` [R-DEX], in data set [7], the AUC0-120 came to 269.5 ± 132.8 ng·h/mL and the Cmax is listed as 6.3 ng/mL.

In data set [7], `CCN(CC)CC#CCOC(=O)[C@](O)(c1ccccc1)C1CCCCC1` [R-OXY] showed an AUC0-120 of 151.1 ± 56.0 ng·h/mL and a Cmax of 3.6 ng/mL.

Take `CCNCC#CCOC(=O)[C@@](O)(c1ccccc1)C1CCCCC1` [S-DEX]: in data set [7], the AUC0-120 came out at 285.5 ± 152.9 ng·h/mL and the Cmax is recorded as 6.9 ± 3.8 ng/mL.

As for `CCN(CC)CC#CCOC(=O)[C@@](O)(c1ccccc1)C1CCCCC1` [S-OXY], in data set [7], the AUC0-120 came out at 246.0 ± 96.7 ng·h/mL and the Cmax came out at 5.8 ± 2.6 ng/mL.
